In patent EP4232018B1 (priority 2020, dated 2022):
Entries after “also recorded” stand apart in the source; their conditions may differ.

Assays:
[1] = test system: African swine fever virus; type: cell-based
SARS-CoV-2 = type: cell-based

Row | Compound | inhibiting African swine fever virus [1] | viral multiplication (rosetta) [1] | effect on cell viability (A549 NSCLC cells) | inhibition of the SARS-CoV-2 reporter gene (SARS-CoV-2)
1 | Cc1ccc(C(C)C)cc1OC(=O)C[N+](C)(C)CCCCCCCCCC[N+](C)(C)CC(=O)Oc1cc(C(C)C)ccc1C.[Cl-].[Cl-] [Compound IV, N1,N10-bis(2-(5-isopropyl-2-methylphenoxy)-2-oxoethyl)-N1,N1,N10,N10-tetramethyldecane-1,10-diaminium dichloride] | effective at inhibiting African swine fever virus | Cells grew well and were protected from African swine fever virus infection. No rosetta were observed; also recorded: Cells grew well, but protection against ASFV infection decreased and some rosetta became visible | does not affect cell viability | inhibits the SARS-CoV-2 reporter gene in a dose dependent manner
2 | Cc1ccc(C(C)C)c(OC(=O)C[N+](C)(C)CCCCCCCCCC[N+](C)(C)CC(=O)Oc2cc(C)ccc2C(C)C)c1.[Cl-].[Cl-] [Compound V, N1,N10-bis(2-(2-isopropyl-5-methylphenoxy)-2-oxoethyl)-N1,N1,N10,N10-tetramethyldecane-1,10-diaminium dichloride] | effective at inhibiting African swine fever virus | Cells grew well and were protected from African swine fever virus infection. No rosetta were observed; also recorded: Cells grew well, but protection against ASFV infection decreased and some rosetta became visible |  | 
